From PubChem BioAssay (NCI)
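Cultured in 96-well plates, cells were exposed to test compound for 48 hours across five concentrations. Here, GI50 denotes the concentration required for 50% inhibition of growth. TGI denotes the concentration required for complete inhibition of growth.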

Columns and labels:
Assay in all cases: inhibition of tumour cell growth, NCI panel, 48 h
[1] = tested on: MDA-MB-231 breast
[2] = tested on: SN12C renal
[3] = tested on: SK-MEL-2 melanoma
[4] = tested on: SF-268 CNS
[5] = tested on: COLO 205 colon
[6] = tested on: HT29 colon
[7] = tested on: IGROV1 ovarian
[8] = tested on: SK-OV-3 ovarian
[9] = tested on: HOP-62 NSCLC
[10] = tested on: A549 NSCLC
[11] = tested on: SR leukemia
[12] = tested on: M14 melanoma
[13] = tested on: OVCAR-8 ovarian
[14] = tested on: HCT-15 colon
[15] = tested on: NCI-H522 lung
[16] = tested on: SK-MEL-5 melanoma
[17] = tested on: T-47D breast
[18] = tested on: UACC-62 melanoma
[19] = tested on: OVCAR-4 ovarian
[20] = tested on: UACC-257 melanoma
[21] = tested on: NCI/ADR-RES ovarian
[22] = tested on: SF-295 CNS
[23] = tested on: HOP-92 NSCLC
[24] = tested on: MALME-3M melanoma
[25] = tested on: EKVX NSCLC
[26] = tested on: PC-3 prostate
[27] = tested on: HS 578T breast
[28] = tested on: NCI-H460 lung
[29] = tested on: LOX IMVI melanoma
[30] = tested on: SW-620 colon
[31] = tested on: SNB-75 CNS
[32] = tested on: OVCAR-3 ovarian
[33] = tested on: ACHN renal
[34] = tested on: NCI-H226 lung
[35] = tested on: NCI-H23 lung
[36] = tested on: BT-549 breast
[37] = tested on: TK-10 renal
[38] = tested on: K-562 leukemia
[39] = tested on: RXF 393 renal
[40] = tested on: CAKI-1 renal
[41] = tested on: RPMI-8226 leukemia
[42] = tested on: U251 CNS
[43] = tested on: 786-0 renal
[44] = tested on: KM12 colon
[45] = tested on: OVCAR-5 ovarian
[46] = tested on: HCT-116 colon
[47] = tested on: SNB-19 CNS
[48] = tested on: MCF7 breast
[49] = tested on: A498 renal
[50] = tested on: HL-60(TB) leukemia
[51] = tested on: CCRF-CEM leukemia
[52] = tested on: MDA-MB-435
[53] = tested on: HCC-2998 colon
[54] = tested on: UO-31 renal
[55] = tested on: MOLT-4 leukemia
[56] = tested on: DU-145 prostate

c1cc2nnc1SCCSCCSCCSc1ccc(nn1)SCCSCCSCCS2
TGI [1]: > 100 µM
TGI [2]: > 100 µM
TGI [3]: > 100 µM
TGI [4]: > 100 µM
TGI [5]: > 100 µM
TGI [6]: > 100 µM
TGI [7]: > 100 µM
TGI [8]: > 100 µM
TGI [9]: > 100 µM
TGI [10]: > 100 µM
TGI [11]: > 100 µM
TGI [12]: > 100 µM
TGI [13]: > 100 µM
TGI [14]: > 100 µM
TGI [15]: > 100 µM
TGI [16]: > 100 µM
TGI [17]: > 100 µM
TGI [18]: > 100 µM
TGI [19]: > 100 µM
TGI [20]: > 100 µM
TGI [21]: > 100 µM
TGI [22]: > 100 µM
TGI [23]: > 100 µM
TGI [24]: > 100 µM
TGI [25]: > 100 µM
TGI [26]: > 100 µM
TGI [27]: > 100 µM
TGI [28]: > 100 µM
TGI [29]: > 100 µM
TGI [30]: > 100 µM
TGI [31]: > 100 µM
TGI [32]: > 100 µM
TGI [33]: > 100 µM

CCC1NC(=O)C(NC(=O)c2ncccc2O)C(C)OC(=O)C(c2ccccc2)NC(=O)C2CC(=O)CCN2C(=O)C(Cc2ccccc2)N(C)C(=O)C2CCCN2C1=O (stereo not given)
TGI [34]: > 100 µM
TGI [35]: > 100 µM
TGI [20]: > 100 µM
TGI [23]: > 100 µM
TGI [36]: > 100 µM

COc1ccc(S(=O)(=O)Nc2c(/C=C\c3cc(OC)c(OC)c(OC)c3)ccc(OC)c2O)cc1
GI50 [37]: 0.0732 µM
TGI [37]: 59.1 µM
GI50 [34]: 41.3 µM
TGI [34]: > 100 µM
GI50 [38]: 0.0286 µM
TGI [38]: > 100 µM
GI50 [39]: 0.0318 µM
TGI [39]: 21.7 µM
GI50 [1]: 0.0503 µM
TGI [1]: 2.35 µM
GI50 [40]: 0.0516 µM
TGI [40]: 79.8 µM
GI50 [2]: 0.0869 µM
TGI [2]: > 100 µM
GI50 [41]: 0.0469 µM
TGI [41]: 22.4 µM
GI50 [3]: 0.0437 µM
TGI [3]: 37.1 µM
GI50 [42]: 0.0374 µM
TGI [42]: > 100 µM
GI50 [4]: 0.0838 µM
TGI [4]: 91.6 µM
GI50 [43]: 0.375 µM
TGI [43]: 28 µM
GI50 [44]: 0.0355 µM
TGI [44]: > 100 µM
GI50 [35]: 0.052 µM
TGI [35]: > 100 µM
GI50 [45]: 1.02 µM
TGI [45]: > 100 µM
GI50 [5]: 0.406 µM
TGI [5]: 1.91 µM
GI50 [6]: 1.4 µM
TGI [6]: 10.8 µM
GI50 [7]: 0.054 µM
TGI [7]: > 100 µM
GI50 [9]: 0.0397 µM
TGI [9]: > 100 µM
GI50 [10]: 0.0459 µM
TGI [10]: > 100 µM
GI50 [46]: 0.032 µM
TGI [46]: > 100 µM
GI50 [11]: 0.0319 µM
TGI [11]: 16.2 µM
GI50 [13]: 0.0466 µM
TGI [13]: > 100 µM
GI50 [14]: 0.0366 µM
TGI [14]: > 100 µM
GI50 [15]: 0.0202 µM
TGI [15]: 0.0536 µM
GI50 [16]: 0.0363 µM
TGI [16]: 0.201 µM
GI50 [47]: 0.0602 µM
TGI [47]: > 100 µM
GI50 [18]: 0.0389 µM
TGI [18]: > 100 µM
GI50 [19]: 0.0763 µM
TGI [19]: > 100 µM
GI50 [48]: 0.038 µM
TGI [48]: > 100 µM
GI50 [49]: 0.0188 µM
TGI [49]: 0.085 µM
GI50 [21]: 0.155 µM
TGI [21]: 0.598 µM
GI50 [22]: 0.0339 µM
TGI [22]: > 100 µM
GI50 [23]: 1.6 µM
TGI [23]: 39.7 µM
GI50 [24]: 15.1 µM
TGI [24]: > 100 µM
GI50 [50]: 0.0235 µM
TGI [50]: 0.0779 µM
GI50 [51]: 0.0301 µM
TGI [51]: > 100 µM
GI50 [52]: 0.019 µM
TGI [52]: 0.0484 µM
GI50 [53]: 0.0316 µM
TGI [53]: 29.9 µM
GI50 [26]: 0.0408 µM
TGI [26]: > 100 µM
GI50 [27]: 0.047 µM
TGI [27]: > 100 µM
GI50 [54]: 0.0619 µM
TGI [54]: 62.4 µM
GI50 [55]: 0.0423 µM
TGI [55]: > 100 µM
GI50 [28]: 0.0368 µM
TGI [28]: 13.7 µM
GI50 [29]: 0.0455 µM
TGI [29]: 49.1 µM
GI50 [30]: 0.0408 µM
TGI [30]: > 100 µM
GI50 [31]: 0.0255 µM
TGI [31]: 88.8 µM
GI50 [56]: 0.0425 µM
TGI [56]: > 100 µM
GI50 [32]: 0.0338 µM
TGI [32]: 1.21 µM
GI50 [33]: 0.0693 µM
TGI [33]: 70.7 µM
GI50 [36]: 0.0501 µM
TGI [36]: 47 µM
